Peptide text beside a SMILES is read from it. * marks the point of attachment. Cbz = O=C(OCc1ccccc1)*
Key:
[1] = system: N-terminally tagged cMYC, RBM39, BRD4 (Flag-HA-DCD23 or Flag-HA-FKBP12^[F36V]); assay: Western blotting, iTAG versus dTAG fused proteins in SUM159; assay type: cell-based, human
Protocol: The fusion constructs were stably expressed in SUM159 cells and loss of protein was determined by western blotting.
(§1) The protein lysates were probed for HA using western blotting. […] The protein lysates were probed for HA using western blotting. […] Median EGFP intensity was measured in each condition using flow cytometry. (3 independent experiments, represented as mean ± SD).
The dTAG system has also been adapted to direct targets to the E3 CRL2^VHL using the PROTAC dTAG^V-1^16. […] We evaluated the degradation N-terminally tagged cMYC and RBM39 dTAG^V-1, we included BRD4 as a control as it was reported to be a well degraded target in the initial dTAG optimization (Figure 3C).[15]
(§2) For the pHAGE-PGK constructs: DCD23, SuperDegron and FKBP12^F36V were separately cloned into a pHAGE-PGK DEST backbone. cDNA encoding the indicated protein was then cloned from pENTR221 into the pHAGE-PGK-DCD23, pHAGE-PGK-SuperDegron or pHAGE-PGK-FKBPF36V DEST vector using Gateway cloning. SUM159 cells were transduced with the indicated lentivirus and selected with puromycin.
Cells were lysed with SDS lysis buffer (2% SDS, 10% Glycerol, 50mM Tris pH 6.8) and boiled at 95°C for 30min. Protein concentration was measured using Pierce BCA Protein Assay Kit (ThermoFischer) following manufacturer’s recommendations. Samples were ran in NuPAGETM 10% Bis-Tris Midi electrophoresis gels (Invitrogen) using NuPAGETM MES SDS running buffer (ThermoFischer Scientific). Proteins were subsequently transferred to an Immobilon-P polyvinylidene Difluoride (PVDF) membrane (Merck Millipore) using the wet-transfer method (Bio-Rad) in a transfer buffer consisting of 20% (v/v) methanol and 10% protein electrophoresis buffer (24.77 mM Tris and 0.192 M glycine).
(§3) For western blotting membranes were blocked in a solution of 5% (w/v) bovine serum albumin (BSA; Sigma-Aldrich) dissolved in TBS-0.1% Tween 20 (Sigma-Aldrich) then incubated at 4°C overnight with the primary antibodies diluted in 5% (w/v) BSA/TBS-T. The membranes where then washed and incubated with anti-mouse and/or anti-rabbit secondary antibodies (LI-COR Biosciences) for 2h at RT diluted in 5% (w/v) BSA/TBS-T then washed and imaged using the LI-COR Odyssey (LI-COR Biosciences). Images were analyzed using Image Studio Lite software (LI-COR Biosciences).

cMYC-EGFP-DCD23 = assay: Degradation of cMYC-EGFP-DCD23 in HMEC (flow cytometry, western blotting); assay type: cell-based, human; details: co-treatment with CC220 (10μM), 4h, western blotting
From the text: (§4) To systematically delineate the optimal DCD/degrader combination for targeted protein degradation, we undertook a matrix approach evaluating all 23 DCD tags against 6 small molecule degraders. […] To control for any potential off-target effects of the IMiD/CeLMOD agents that could indirectly affect the target of interest, we designed controls in which the specific DCD and the EGFP sequences were interspaced by a P2A ribosomal “skipping” sequence,[32] leading to separate translation of the DCD and the target protein (Figure 1A). These constructs were then inserted into a doxycycline-inducible lentiviral vector system and stably expressed in hTERT immortalized human mammary epithelial cells (HMEC), a suitable model to assess the functional consequences of cMYC degradation. cMYC was tagged at the C-terminus end for the initial screening experiments.
(§5) Figure 1 Design and experimental evaluation of the DCD tags (A) Representation of the experimental pipeline used to evaluate the different DCD constructs. […] Median EGFP intensity was measured in each condition using flow cytometry (3 independent experiments, normalized to the control and represented as mean ± SD). […] The protein lysates were probed for cMYC levels using western blotting. […] Target loss was evaluated either by measuring EGFP median intensity using flow cytometry or western blotting for cMYC protein (3 independent experiments, normalized to the control and represented as mean ± SD). […] Target loss was evaluated as in (D) (3 independent experiments, normalized to the control and represented as mean ± SD). […] Protein lysates were collected and probed for cMYC and p21 using western blotting. […] Protein lysates were collected and probed for cMYC and p21 using western blotting. […] These were left out as controls with no test substance.
(§6) Following degrader treatment cells were collected and DAPI was added to the cell suspension at 1 μg/mL to allow the exclusion of dead cells. EGFP signal was measured using BD LSR II flow cytometer (BD Biosciences). FlowJo 10 Software (FlowJo) was used for data processing.
Cells were lysed with SDS lysis buffer (2% SDS, 10% Glycerol, 50mM Tris pH 6.8) and boiled at 95°C for 30min. Protein concentration was measured using Pierce BCA Protein Assay Kit (ThermoFischer) following manufacturer’s recommendations. Samples were ran in NuPAGETM 10% Bis-Tris Midi electrophoresis gels (Invitrogen) using NuPAGETM MES SDS running buffer (ThermoFischer Scientific).
as §3

cMYC-EGFP-DCD19 = assay: Flow cytometry of EGFP signal, cMYC-EGFP-DCD19 in HMEC; assay type: cell-based, human; details: 10uM, 4h
From the text: as §4, §5, §6

N-terminally tagged EGFP = assay: Flow cytometry of N-terminally tagged EGFP in SUM159 (iTAG, SD, dTAG); assay type: cell-based, human; details: SUM159, 4h, normalized values; dTAG-13 for FKBP12 F36V, CC220 for SD and iTAG
Protocol: as §1
As we were finalizing our study on iTAG, a similar IMiD based degron was publish by the Ebert group.[28] The SuperDegron (SD) a 60 amino acid tag based on a chimera of Aiolos/ZFP91 was used to generate degradable chimeric antigen receptors (CAR).[28]
as §2

CT26 cells = assay: Quantitative multiplexed proteomics of CT26 cells treated with thalidomide derivatives; assay type: cell-based, mouse; details: CT26, 10uM, 24h
Protocol: After showing that iTAG was active in mouse cells, we explored whether more potential degrons were active in the murine context. […]2216[50] and profiled the cellular proteomes using quantitative multiplexed proteomics. […] Data are plotted as Log2 fold change relative to DMSO versus Log10 of p value. (B) Proteome of CT26 CRBN KO cells treated with 10uM of FPFT2216 for 24h analyzed and plotted as in (A). (C) HEK293T, CT26, AT3 and 4434 cells treated with 10uM of FPFT2216 for 24h in presence of absence of MLN4924. […] were analyzed using western blotting. (D) Structural representation of PDE6D with the critical […] highlighted in red. (E) CT26, AT3 and 4434 cells transiently expressing WT or […] mutant Flag-PDE6D treated with 10uM of FPFT2216 for 16h. (F) Docking model for FPFT-2216 (in magenta) in the binding site of mouse CRBN (in orange). H-bond interactions are shown as cyan dashes. (G) Binding model for the ternary complex formed by mouse CRBN (in orange), mouse PDE6D (in cyan) and FPFT-2216 (in magenta), showing the […] loop close to the molecular glue. Samples for quantitative proteomics were prepared using the […] workflow.[60] Briefly, the cell pellets were lysed in a buffer containing 150 μL 0.1 M triethylammonium bicarbonate (TEAB), 1% sodium deoxycholate (SDC), 10% isopropanol, 50mM NaCl, 5 mM tris-2-carboxyethyl phosphine (TCEP), 10 mM iodoacetamide (IAA), universal nuclease, and supplemented with protease and phosphatase inhibitors. Samples were bath sonicated for 5 min, incubated at RT for 45 min and protein concentration was measured with the Bradford Protein Assay (Biorad) according to manufacturer instructions. Aliquots containing 30 μg of total protein were used for protein digestion. The resultant peptides were labeled with a tandem mass tag (TMTpro) multiplex reagent vial (Thermo Scientific) according to the manufacturer instructions. All the TMT-labelled samples were combined in equal amounts to a single tube. The TMT-peptide mixture was acidified with 1% formic acid and the precipitated SDC was removed by centrifugation. The sample was then dried with a centrifugal vacuum concentrator. LC-MS analysis was performed on the Dionex Ultimate 3000 UHPLC system coupled with the Orbitrap Lumos mass spectrometer (Thermo Scientific). Samples were analyzed with the EASY-Spray C18 capillary column (75 μm × 50 cm, 2 μm) at 50°C. […] MS3 quantification was obtained with higher-energy collisional dissociation (HCD) fragmentation of the top 5 most abundant CID fragments isolated with synchronous precursor selection (SPS). […] The SEQUEST-HT search engine was used to analyze the acquired mass spectra in Proteome Discoverer 2.4 (Thermo Scientific) for protein identification and quantification. […]

For `CC[C@H](C(=O)N1CCCC[C@H]1C(=O)O[C@H](CCc1ccc(OC)c(OC)c1)c1ccccc1OCC(=O)NCCCCCCOc1cccc2c1C(=O)N(C1CCC(=O)NC1=O)C2=O)c1cc(OC)c(OC)c(OC)c1` (stereo partly drawn) [dTAG-13], the “concentrations at which targets are degraded” value ([1]; SUM159, dTAG-13 on dTAG, CC220 on iTAG) was “less pronounced or even not observed at high concentrations” and the “time of onset of degradation of cMYC and RBM39” value ([1]; SUM159, dTAG-13 on dTAG, CC220 on iTAG, 1, 2 or 4h) was “moderate degradation only after 4h”.

In the case of `CC(C)C[C@@H](C=O)NC(=O)[C@H](CC(C)C)NC(=O)[C@H](CC(C)C)NC(=O)OCc1ccccc1` [MG132] (Cbz-Leu-Leu-Leu-aldehyde), the “effect on CC220-induced cMYC degradation” value (cMYC-EGFP-DCD23) is reported as “inhibited cMYC degradation”.

For `Cc1nc2cccc(N)c2c(=O)n1C1CCC(=O)NC1=O` (stereo not drawn) [CC122, Avadomide], the “loss of cMYC-EGFP signal” value (cMYC-EGFP-DCD19) was “robust loss of cMYC-EGFP signal”.

For `Nc1cccc2c1C(=O)N(C1CCC(=O)NC1=O)C2=O` (stereo not drawn) [Pomalidomide], the “loss of cMYC-EGFP signal” value (cMYC-EGFP-DCD19) was “robust loss of cMYC-EGFP signal”.

In the case of “FKBP12^[F36V]: mutant FKBP12 protein tag of the dTAG system, degraded with dTAG-13”, the DC50 (N-terminally tagged EGFP) is reported as 0.38 nM and the DCmax (N-terminally tagged EGFP) is reported as 95%.

In the case of `O=C1CCC(N2C(=O)c3ccccc3C2=O)C(=O)N1` (stereo not drawn) [Thalidomide], the “loss of cMYC-EGFP signal” value (cMYC-EGFP-DCD19) is reported as “robust loss of cMYC-EGFP signal”.

With `O=C1CCC(N2C(=O)c3ccc(NS(=O)(=O)c4ccccc4OC(F)(F)F)cc3C2=O)C(=O)N1` (stereo not drawn) [StJude6989] the “effect on cellular proteome” value (CT26 cells) was “no impact”.

For `NS(=O)(=O)OC[C@@H]1C[C@@H](n2ccc3c(N[C@H]4CCc5ccccc54)ncnc32)C[C@@H]1O` [MLN4924], the “effect on CC220-induced cMYC degradation” value (cMYC-EGFP-DCD23) was “inhibited cMYC degradation”.

`O=C1CCC(N2Cc3cc(CNC(=O)C(F)(F)c4ccc(Cl)cc4)ccc3C2=O)C(=O)N1` (stereo not drawn) [CC90009] was tested, and the “effect on cellular proteome” value (CT26 cells) was “no impact”.

`CC[C@H](C(=O)N1CCCC[C@H]1C(=O)O[C@H](CCc1ccc(OC)c(OC)c1)c1ccccc1OCC(=O)NCCCCCCC(=O)N[C@H](C(=O)N1C[C@H](O)C[C@H]1C(=O)N[C@@H](C)c1ccc(-c2scnc2C)cc1)C(C)(C)C)c1cc(OC)c(OC)c(OC)c1` [dTAG^V-1] was tested, and the “degradation compared between dTAG variants” value ([1]; SUM159, BRD4, cMYC, RBM39, 4h) was “more robust degradation compared to dTAG-13”.

Source: paper PMC10285648, “iTAG an optimized IMiD-induced degron for targeted protein degradation in human and murine cells” (iScience, 2023)
